# What was measured:
# [1] = In vitro skin penetration of methyl salicylate in flow diffusion cell (Experiment 9); assay type: in vitro ADME, pig
# Method: The emulsions contained 56% oil and 214 mg starch/ml oil (corresponding to sample M in experiment 8). The total volume was 7 ml and each experiment was performed in triplicate. Methyl salicylate, dissolved in the oil phase, was used as control substance for studying the permeability into the skin.
# The skin diffusion measurement was performed in a flow cell by monitoring the transport of methyl salicylate from the three different topical formulations across pigskin membrane and silicone membrane under a flow of phosphate buffer with pH 6.8. The diffusion experiments were performed in seven-chamber diffusion cells at 32° C. and the donor and receptor phase were separated by a membrane with a diffusion area of 0.64 cm^2 (9 mm Ø). About 1 g of the emulsions (donor phase) were spread uniformly on the membranes. The cells were covered with parafilm to avoid evaporation. Buffer flowed through the pump (IsmatecIPN-16, L852) with a flow of 2 ml/h. Samples were collected every two hours during 12 hours and were analyzed using a spectrophotometer (Varian Carry 50Bio) at the detection wavelength for methyl salicylate (302 nm).
# adult humans = conditions: cited from earlier work
structure (smiles),measurement,setting,value
"COC(=O)c1ccccc1O [methyl salicylate, Methyl salicylate]",Steady state flux of methyl salicylate,"[1]; pig skin, 32° C., 56% oil starch Pickering emulsions",around 8 μg/(cm2*h)
same,Flux compared with buffer solutions of the same methyl salicylate concentration,[1]; similar experimental set up observed previously,nearly two times higher
same,LD50,adult humans,500 mg/kg
